Results reported in ChEMBL document CHEMBL4354881, “Optimization of Potent ATAD2 and CECR2 Bromodomain Inhibitors with an Atypical Binding Mode” (J Med Chem, 2020).

Assays:
[1] = molecular target: Bromodomain-containing protein 4 (Homo sapiens, UniProt O60885, Y390A); test: Displacement of Alexa Fluor 647-labeled ligand from BRD4 BD1 Y390A mutant (1 to 477 residue) (unknown origin) measured after 30 mins by TR-FRET assay
[2] = molecular target: T1, ATPase family AAA domain-containing protein 2 (Homo sapiens, UniProt Q6PL18); test: Displacement of Alexa Fluor 488-labeled ligand from FLAG-6His-Tev-fused ATAD2 (981 to 1121 residue) (unknown origin) measured after 30 mins by TR-FRET assay
T1 sequence (Q6PL18 whole entry): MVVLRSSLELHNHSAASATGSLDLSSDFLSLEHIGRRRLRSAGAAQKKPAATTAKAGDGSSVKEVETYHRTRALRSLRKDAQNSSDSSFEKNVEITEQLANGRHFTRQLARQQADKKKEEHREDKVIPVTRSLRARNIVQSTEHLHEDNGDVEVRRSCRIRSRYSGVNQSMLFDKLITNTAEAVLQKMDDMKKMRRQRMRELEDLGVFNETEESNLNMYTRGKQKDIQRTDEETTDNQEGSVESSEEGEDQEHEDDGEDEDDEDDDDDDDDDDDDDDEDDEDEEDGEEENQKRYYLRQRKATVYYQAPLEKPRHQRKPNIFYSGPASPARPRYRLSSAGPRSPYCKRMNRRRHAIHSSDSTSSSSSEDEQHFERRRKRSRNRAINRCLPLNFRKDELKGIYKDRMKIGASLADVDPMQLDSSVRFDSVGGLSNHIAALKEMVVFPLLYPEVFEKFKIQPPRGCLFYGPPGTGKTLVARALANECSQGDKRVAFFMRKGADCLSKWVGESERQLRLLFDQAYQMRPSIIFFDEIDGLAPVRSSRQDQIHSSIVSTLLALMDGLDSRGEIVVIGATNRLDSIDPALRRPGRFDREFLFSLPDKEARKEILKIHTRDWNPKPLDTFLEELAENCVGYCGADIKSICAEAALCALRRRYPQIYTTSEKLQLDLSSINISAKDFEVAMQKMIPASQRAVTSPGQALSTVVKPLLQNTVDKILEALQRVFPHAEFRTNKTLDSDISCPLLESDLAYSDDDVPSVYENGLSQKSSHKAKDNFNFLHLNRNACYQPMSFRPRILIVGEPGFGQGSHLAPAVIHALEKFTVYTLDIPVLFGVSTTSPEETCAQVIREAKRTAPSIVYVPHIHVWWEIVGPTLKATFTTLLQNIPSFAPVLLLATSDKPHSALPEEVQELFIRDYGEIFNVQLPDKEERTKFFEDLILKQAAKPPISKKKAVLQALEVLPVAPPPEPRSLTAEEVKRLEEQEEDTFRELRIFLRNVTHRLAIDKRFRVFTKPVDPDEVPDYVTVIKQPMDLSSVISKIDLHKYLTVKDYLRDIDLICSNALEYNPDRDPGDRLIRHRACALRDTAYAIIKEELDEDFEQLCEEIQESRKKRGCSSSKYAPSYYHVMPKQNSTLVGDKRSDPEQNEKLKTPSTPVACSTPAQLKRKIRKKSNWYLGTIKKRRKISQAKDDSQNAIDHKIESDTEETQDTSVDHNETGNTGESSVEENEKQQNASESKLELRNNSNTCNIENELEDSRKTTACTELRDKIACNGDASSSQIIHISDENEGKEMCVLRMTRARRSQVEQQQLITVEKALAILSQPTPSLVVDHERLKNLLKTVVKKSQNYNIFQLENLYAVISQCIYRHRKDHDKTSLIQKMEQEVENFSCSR

[3] = Permeability of the compound by artificial lipid membrane-based method; type: ADME; conditions: not told; read-out: permeability
[4] = molecular target: T2, Bromodomain and PHD finger-containing protein 3 (Homo sapiens, UniProt Q9ULD4); test: Binding affinity to human partial length BRPF3 (E588 to G701 residues) expressed in bacterial expression system by BROMOscan assay
T2 sequence (Q9ULD4 whole entry): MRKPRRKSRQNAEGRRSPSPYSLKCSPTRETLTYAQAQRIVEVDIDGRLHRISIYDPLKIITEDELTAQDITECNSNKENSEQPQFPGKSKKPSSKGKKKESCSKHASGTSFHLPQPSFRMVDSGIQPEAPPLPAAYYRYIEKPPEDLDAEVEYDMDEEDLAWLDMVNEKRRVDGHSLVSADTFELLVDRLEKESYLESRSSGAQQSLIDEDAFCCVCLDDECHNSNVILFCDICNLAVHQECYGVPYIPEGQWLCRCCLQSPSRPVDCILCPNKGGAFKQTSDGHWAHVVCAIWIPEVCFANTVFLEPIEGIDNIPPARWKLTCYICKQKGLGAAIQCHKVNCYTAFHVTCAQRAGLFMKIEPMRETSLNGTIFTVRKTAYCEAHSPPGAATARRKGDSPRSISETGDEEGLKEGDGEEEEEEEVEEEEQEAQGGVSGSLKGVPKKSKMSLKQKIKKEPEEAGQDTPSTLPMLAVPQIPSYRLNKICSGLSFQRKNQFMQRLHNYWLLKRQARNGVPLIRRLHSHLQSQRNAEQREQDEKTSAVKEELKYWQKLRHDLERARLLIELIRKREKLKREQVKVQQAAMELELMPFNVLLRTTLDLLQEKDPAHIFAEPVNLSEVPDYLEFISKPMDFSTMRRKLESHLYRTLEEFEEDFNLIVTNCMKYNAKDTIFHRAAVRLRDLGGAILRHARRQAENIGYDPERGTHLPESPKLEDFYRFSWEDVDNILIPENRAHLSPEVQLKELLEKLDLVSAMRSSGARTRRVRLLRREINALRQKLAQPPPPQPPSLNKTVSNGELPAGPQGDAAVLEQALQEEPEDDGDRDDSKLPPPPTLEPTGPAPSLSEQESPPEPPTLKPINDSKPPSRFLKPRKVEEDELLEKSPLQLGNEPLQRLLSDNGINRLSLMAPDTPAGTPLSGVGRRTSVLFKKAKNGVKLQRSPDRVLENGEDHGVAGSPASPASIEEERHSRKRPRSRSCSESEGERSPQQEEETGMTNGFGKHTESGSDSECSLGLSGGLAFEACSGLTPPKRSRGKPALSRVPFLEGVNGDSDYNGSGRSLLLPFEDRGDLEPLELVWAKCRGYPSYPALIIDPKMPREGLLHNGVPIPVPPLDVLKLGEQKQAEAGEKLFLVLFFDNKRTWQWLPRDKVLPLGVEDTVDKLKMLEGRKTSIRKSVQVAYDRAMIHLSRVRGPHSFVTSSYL

[5] = molecular target: Chromatin remodeling regulator CECR2 (Homo sapiens, UniProt Q9BXF3); test: Binding affinity to human partial length CECR2 (P423 to D543 residues) expressed in bacterial expression system by BROMOscan assay
Chain of Chromatin remodeling regulator CECR2 (Q9BXF3 whole entry, the tested form may be a part): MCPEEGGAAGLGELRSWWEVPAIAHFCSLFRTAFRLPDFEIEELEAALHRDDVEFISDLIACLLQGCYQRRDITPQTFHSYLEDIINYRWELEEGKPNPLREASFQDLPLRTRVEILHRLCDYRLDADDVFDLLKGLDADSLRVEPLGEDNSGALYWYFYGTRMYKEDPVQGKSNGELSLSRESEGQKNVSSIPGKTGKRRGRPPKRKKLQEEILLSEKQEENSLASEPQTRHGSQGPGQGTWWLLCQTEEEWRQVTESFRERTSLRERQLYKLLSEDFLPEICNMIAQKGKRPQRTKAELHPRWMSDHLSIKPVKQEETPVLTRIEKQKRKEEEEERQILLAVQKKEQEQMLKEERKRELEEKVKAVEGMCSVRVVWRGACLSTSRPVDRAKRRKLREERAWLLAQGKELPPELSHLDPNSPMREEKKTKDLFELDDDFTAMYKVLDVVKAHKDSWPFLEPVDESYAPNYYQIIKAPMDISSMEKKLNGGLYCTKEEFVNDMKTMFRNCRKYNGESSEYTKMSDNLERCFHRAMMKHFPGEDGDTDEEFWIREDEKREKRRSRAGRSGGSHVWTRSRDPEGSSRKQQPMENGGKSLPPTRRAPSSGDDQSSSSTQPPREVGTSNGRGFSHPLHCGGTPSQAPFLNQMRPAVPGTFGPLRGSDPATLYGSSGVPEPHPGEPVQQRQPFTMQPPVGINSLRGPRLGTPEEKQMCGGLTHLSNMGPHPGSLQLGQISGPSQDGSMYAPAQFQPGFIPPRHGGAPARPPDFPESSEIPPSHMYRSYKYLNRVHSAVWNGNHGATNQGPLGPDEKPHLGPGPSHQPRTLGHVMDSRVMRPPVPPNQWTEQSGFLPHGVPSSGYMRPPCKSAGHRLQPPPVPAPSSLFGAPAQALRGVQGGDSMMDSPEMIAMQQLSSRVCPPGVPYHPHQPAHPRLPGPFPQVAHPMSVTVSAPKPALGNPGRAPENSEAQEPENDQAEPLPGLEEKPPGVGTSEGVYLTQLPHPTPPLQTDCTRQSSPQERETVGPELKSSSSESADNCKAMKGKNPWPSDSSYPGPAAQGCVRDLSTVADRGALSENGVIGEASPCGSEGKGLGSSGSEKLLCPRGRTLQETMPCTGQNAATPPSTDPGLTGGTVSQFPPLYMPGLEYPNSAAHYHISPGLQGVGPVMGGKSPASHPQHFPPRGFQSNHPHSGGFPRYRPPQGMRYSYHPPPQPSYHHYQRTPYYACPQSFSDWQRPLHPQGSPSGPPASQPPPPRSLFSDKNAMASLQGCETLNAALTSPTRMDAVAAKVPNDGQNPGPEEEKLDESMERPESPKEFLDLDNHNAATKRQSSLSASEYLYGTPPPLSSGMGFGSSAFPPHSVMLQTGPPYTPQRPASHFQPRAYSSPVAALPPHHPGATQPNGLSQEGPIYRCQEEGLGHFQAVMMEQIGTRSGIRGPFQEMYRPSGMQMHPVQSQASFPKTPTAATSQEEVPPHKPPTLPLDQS

[6] = molecular target: Transcription initiation factor TFIID subunit 1-like (Homo sapiens, UniProt Q8IZX4); test: Binding affinity to human partial length TAF1L bromodomain 2 (Q1523 to D1654 residues) expressed in bacterial expression system by BROMOscan assay
Chain of Transcription initiation factor TFIID subunit 1-like (Q8IZX4 whole entry, the tested form may be a part): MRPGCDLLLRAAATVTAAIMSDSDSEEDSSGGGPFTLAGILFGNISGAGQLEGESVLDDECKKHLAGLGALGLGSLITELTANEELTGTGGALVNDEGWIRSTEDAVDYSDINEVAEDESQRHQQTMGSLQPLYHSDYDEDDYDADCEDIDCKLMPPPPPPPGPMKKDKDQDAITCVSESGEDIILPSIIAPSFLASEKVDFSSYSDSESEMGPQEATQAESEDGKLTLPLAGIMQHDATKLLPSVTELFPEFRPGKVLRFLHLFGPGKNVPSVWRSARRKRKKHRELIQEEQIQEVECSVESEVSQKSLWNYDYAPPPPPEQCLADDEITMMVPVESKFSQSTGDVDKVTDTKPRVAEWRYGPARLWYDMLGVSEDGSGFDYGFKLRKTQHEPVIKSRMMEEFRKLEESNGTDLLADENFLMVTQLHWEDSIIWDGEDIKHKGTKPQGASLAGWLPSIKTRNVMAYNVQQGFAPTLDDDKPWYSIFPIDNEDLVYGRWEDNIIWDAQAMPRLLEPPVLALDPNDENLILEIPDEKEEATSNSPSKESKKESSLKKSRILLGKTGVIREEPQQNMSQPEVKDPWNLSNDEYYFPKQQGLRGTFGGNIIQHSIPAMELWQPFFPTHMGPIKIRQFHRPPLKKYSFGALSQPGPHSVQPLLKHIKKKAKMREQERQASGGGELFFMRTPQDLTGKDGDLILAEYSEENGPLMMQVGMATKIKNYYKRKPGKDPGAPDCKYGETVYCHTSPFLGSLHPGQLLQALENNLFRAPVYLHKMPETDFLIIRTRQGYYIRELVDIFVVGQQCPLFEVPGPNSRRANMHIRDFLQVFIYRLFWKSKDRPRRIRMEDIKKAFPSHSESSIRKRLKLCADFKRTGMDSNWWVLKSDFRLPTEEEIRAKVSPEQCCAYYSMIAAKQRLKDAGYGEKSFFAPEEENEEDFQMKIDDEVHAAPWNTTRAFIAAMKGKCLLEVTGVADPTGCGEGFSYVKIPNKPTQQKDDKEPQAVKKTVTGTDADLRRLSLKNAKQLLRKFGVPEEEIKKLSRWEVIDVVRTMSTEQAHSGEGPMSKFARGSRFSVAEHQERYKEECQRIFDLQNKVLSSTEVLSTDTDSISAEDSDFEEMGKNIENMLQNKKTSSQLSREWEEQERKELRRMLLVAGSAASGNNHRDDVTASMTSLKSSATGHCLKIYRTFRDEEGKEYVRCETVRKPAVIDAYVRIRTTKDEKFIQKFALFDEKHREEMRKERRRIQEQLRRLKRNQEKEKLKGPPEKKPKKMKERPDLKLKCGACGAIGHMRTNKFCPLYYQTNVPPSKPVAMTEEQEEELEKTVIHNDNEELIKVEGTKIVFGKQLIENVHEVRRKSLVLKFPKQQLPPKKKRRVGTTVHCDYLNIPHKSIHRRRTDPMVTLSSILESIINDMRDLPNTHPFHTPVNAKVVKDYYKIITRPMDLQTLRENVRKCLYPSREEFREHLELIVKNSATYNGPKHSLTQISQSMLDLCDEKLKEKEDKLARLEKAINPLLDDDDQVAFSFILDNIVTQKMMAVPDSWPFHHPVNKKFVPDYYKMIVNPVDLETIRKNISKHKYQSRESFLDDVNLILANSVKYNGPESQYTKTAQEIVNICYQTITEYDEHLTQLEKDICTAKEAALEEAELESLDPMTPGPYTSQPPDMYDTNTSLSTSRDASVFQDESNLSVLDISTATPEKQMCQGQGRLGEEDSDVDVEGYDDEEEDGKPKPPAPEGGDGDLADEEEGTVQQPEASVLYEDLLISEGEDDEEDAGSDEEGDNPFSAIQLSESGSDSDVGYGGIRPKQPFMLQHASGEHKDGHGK

- IC50 [1]: > 50100 nM
- IC50 [2]: 63.1 nM
- Papp [3]: 9.9 ×10⁻⁶ cm/s
- Kd [4]: 126 nM
- Kd [5]: 25.1 nM
- Kd [6]: 25.1 nM
SMILES: C[C@H]1CCN(S(=O)(=O)c2cc(NC(=O)CN3C(=O)N[C@@](C)(C4CC4)C3=O)ccc2Br)C1
